The values below come from ChEMBL document CHEMBL5137036, “Design and synthesis of highly TRAIL expression HDAC inhibitors based on ONC201 to promote apoptosis of colorectal cancer” (Eur J Med Chem, 2022).

Experiment [1] has as its target T1, Histone deacetylase 1 (Homo sapiens, UniProt Q13547). Description: Inhibition of human HDAC1 assessed as residual activity at 1 uM using RHKKAc fluorogenic peptide as substrate preincubated for 10 mins followed by substrate addition by fluorescence based analysis relative to control.
In experiment [2] the target is T1, Histone deacetylase 1. Put plainly: Inhibition of human HDAC1 using RHKKAc fluorogenic peptide as substrate preincubated for 10 mins followed by substrate addition by fluorescence based analysis.
Experiment [3] has as its system HCT-116. Put plainly: Antiproliferative activity against human HCT-116 cells assessed as residual activity at 2 uM incubated for 72 hrs by luminescence based analysis relative to control. It counts as functional.
Experiment [4] deals with MV4-11. Description: Antiproliferative activity against human MV4-11 cells assessed as inhibition of cell growth incubated for 72 hrs by luminescence based analysis. It counts as functional. To be noted: MV4-11, 72 h.
The test system of experiment [5] is HepG2. Description: Antiproliferative activity against human HepG2 cells assessed as inhibition of cell growth incubated for 72 hrs by luminescence based analysis. It counts as functional. To be noted: HepG2, 72 h.
In experiment [6] the target is T1, Histone deacetylase 1. Put plainly: Inhibition of HDAC1 in human HCT-116 cells assessed as increase in DR5 protein expression at 0.5 uM incubated for 12 hrs by Western blot analysis. It counts as cell-based.
In experiment [7] the test system is HCT-116. Put plainly: Antiproliferative activity against human HCT-116 cells assessed as inhibition of cell growth incubated for 72 hrs by luminescence based analysis. It counts as functional. To be noted: HCT-116, 72 h.
Experiment [8] concerns HCT-116. Put plainly: Induction of apoptosis in human HCT-116 cells assessed as viable cells at 0.5 uM incubated for 24 hrs by AnnexinV-FITC/PI staining based flow cytometry (reference value: 93.64%). To be noted: read-out: Activity. It counts as functional. A general note: A flow cytometer gives signals particle by particle.
Experiment [9] relates to HCT-116. Description: Induction of apoptosis in human HCT-116 cells assessed as late apoptotic cells at 0.5 uM incubated for 24 hrs by AnnexinV-FITC/PI staining based flow cytometry (reference value: 0.82 %). It counts as functional.
The test system of experiment [10] is HCT-116. Put plainly: Induction of apoptosis in human HCT-116 cells assessed as early apoptotic cells at 0.5 uM incubated for 24 hrs by AnnexinV-FITC/PI staining based flow cytometry (reference value: 0.93 %). It counts as functional.
Experiment [11] concerns HCT-116. Put plainly: Induction of apoptosis in human HCT-116 cells assessed as dead cells at 0.5 uM incubated for 24 hrs by AnnexinV-FITC/PI staining based flow cytometry (reference value: 4.62 %). It counts as functional.

pIC50: −log10 of the molar value. Calls of active or inactive are those of the source. No cut-off for these calls is given here.

T1 sequence (Q13547 whole entry): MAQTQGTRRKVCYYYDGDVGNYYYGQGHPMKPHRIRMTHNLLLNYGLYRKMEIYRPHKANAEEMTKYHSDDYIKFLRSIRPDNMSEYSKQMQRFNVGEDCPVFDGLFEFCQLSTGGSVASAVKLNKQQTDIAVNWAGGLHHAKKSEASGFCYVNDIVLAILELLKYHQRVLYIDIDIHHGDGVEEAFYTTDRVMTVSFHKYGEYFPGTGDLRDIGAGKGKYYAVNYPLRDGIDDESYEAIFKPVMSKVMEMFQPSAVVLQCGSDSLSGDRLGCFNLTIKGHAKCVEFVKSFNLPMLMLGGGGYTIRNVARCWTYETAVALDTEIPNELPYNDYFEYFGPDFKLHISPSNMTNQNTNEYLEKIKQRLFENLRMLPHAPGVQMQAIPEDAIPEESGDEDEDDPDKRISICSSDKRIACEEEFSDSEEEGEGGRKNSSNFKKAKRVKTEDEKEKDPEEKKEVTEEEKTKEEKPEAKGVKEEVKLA

Turning to `CNC1=C(CCCc2ccccc2)C(=O)N(Cc2ccc(C(=O)Nc3ccccc3N)cc2)C2=NCCN21`, the Activity in experiment [1] is 63.8%.

`NC1=C(CCNC(=O)c2ccccc2)C(=O)N(Cc2ccc(C(=O)Nc3ccccc3N)cc2)C2=NCCN21`: the pIC50 was 6.56 in experiment [2], 6.08 in [4] and 5.90 in experiment [5]. Moreover, the Activity in experiment [3] turned out to be 88.98%.

As to `Nc1ccccc1NC(=O)c1ccc(CN2C(=O)C3=C(CCN(Cc4ccccc4)C3)N3CCN=C23)cc1`, the pIC50 is 6.70 in experiment [2], 5.84 in experiment [7], 6.12 in [4] and 5.40 in experiment [5]. The inhibition entry in experiment [6] is “Active”.

Regarding `COc1ccc(CN2CCC3=C(C2)C(=O)N(Cc2ccc(C(=O)Nc4ccccc4N)cc2)C2=NCCN23)cc1`, the Activity in experiment [1] worked out at 44.4%.

Molecule `Nc1ccccc1NC(=O)c1ccc(CN2C(=O)C(CCCc3ccccc3)=C(O)N3CCN=C23)cc1` showed a pIC50 in [2] of 6.22.

On to `NC1=C(CCCc2ccccc2)C(=O)N(Cc2ccc(C(=O)Nc3ccccc3N)cc2)C2=NCCN21`, for which the pIC50 in experiment [2] was 7.17; in [7], 6.17; in experiment [4], 5.90; in experiment [5], 5.35. In addition, in [6], the inhibition result is “Active”.

On to `Nc1ccccc1NC(=O)c1ccc(CN2C(=O)C3=C(CCN(C(=O)/C=C/c4ccc(Cl)cc4F)C3)N3CCN=C23)cc1`, for which the pIC50 in experiment [2] is 6.56; in experiment [7], 6.18; in experiment [4], 5.84; in experiment [5], 5.21.

Consider `NC1=C(CCCc2ccccc2)C(=O)N(Cc2ccc(C(=O)Nc3ccc(F)cc3N)cc2)C2=NCCN21`, for which, in experiment [2], the pIC50 is 6.38.

Regarding `Nc1ccccc1NC(=O)c1ccc(CN2CCC3=C(C2)C(=O)N(Cc2cccnc2)C2=NCCN23)cc1`, the Activity in experiment [1] is 46.4%.

Consider `N#Cc1ccc(CN2C(=O)C3=C(CCN(Cc4ccc(C(=O)Nc5ccccc5N)cc4)C3)N3CCN=C23)cc1`, for which the pIC50 in experiment [2] was 6.76; in experiment [7], 6.01; in experiment [4] it was 6.02; in experiment [5], 5.33.

Consider `Nc1ccccc1NC(=O)c1ccc(CN2C(=O)C3=C(CCN(Cc4ccc5ccccc5c4)C3)N3CCN=C23)cc1`, for which, in experiment [1], the Activity came to 58.1%.

Turning to `Nc1cc(F)ccc1NC(=O)c1ccc(CNC(=O)/C=C/c2cccnc2)cc1` [TUCIDINOSTAT], the viability at 0.5 µM in experiment [8] was 88.8%. The Activity in experiment [9] is 1.66%; in [10] it was 1.22%; in [11] it was 8.27%. For the same molecule, the pIC50 is 6.11 in experiment [4] and 5.70 in experiment [5].

In the case of `Nc1ccccc1NC(=O)c1ccc(CN2C(=O)C3=C(CCN(Cc4nc5ccccc5[nH]4)C3)N3CCN=C23)cc1`, the Activity in [1] was 58.3%.

In the case of `Cc1ccc(/C=C/C(=O)N2CCC3=C(C2)C(=O)N(Cc2ccc(C(=O)Nc4ccccc4N)cc2)C2=NCCN23)o1`, the negative-log IC50 (pIC50) is 6.42 in experiment [2], 5.61 in experiment [4] and 5.34 in [5]. Further, the Activity in [3] came to 79.55%.

For the molecule `Cc1ccccc1CN1CCC2=C(C1)C(=O)N(Cc1ccc(C(=O)Nc3ccc(F)cc3N)cc1)C1=NCCN12`, the Activity in experiment [1] amounted to 68%.

As for `Nc1ccccc1NC(=O)c1ccc(CN2C(=O)C3=C(CCN(Cc4ccc(Cl)c(C(F)(F)F)c4)C3)N3CCN=C23)cc1`, in [1], the Activity amounted to 52.2%.

`Nc1ccccc1NC(=O)c1ccc(CN2CCC3=C(C2)C(=O)N(Cc2cccc(F)c2)C2=NCCN23)cc1`: the Activity in [1] was determined as 49.1%.

As for `CC(c1ccccc1)N1C(=O)C2=C(CCN(Cc3ccc(C(=O)Nc4ccccc4N)cc3)C2)N2CCN=C21` (stereo not drawn), in [1], the Activity is 46.3%.

As for `Cc1ccccc1CN1C(=O)C2=C(CCN(Cc3ccc(C(=O)Nc4ccccc4N)cc3)C2)N2CCN=C12`, the pIC50 was 6.60 in [2], 5.97 in experiment [7], 6.10 in experiment [4] and 5.45 in experiment [5].

Take `Nc1cc(F)ccc1NC(=O)c1ccc(CN2C(=O)C3=C(CCN(Cc4ccccc4)C3)N3CCN=C23)cc1`: the Activity in experiment [1] is 78.3%.

As usually defined, the pIC50 is the IC50 on a negative log10 scale, so that one unit is a factor of ten.
